Values joined by “and” are separate entries in the source; they are usually repeats but may differ in a detail not shown here. Identical values can stand only once.
Test: xn = mol fraction of the nth substance listed
Details: 101 kPa

| electrical conductivity (288.15 K, x1 = 0.0001) | electrical conductivity (298.15 K, x1 = 0.0001) | viscosity (298.15 K, x1 = 0.0001) | electrical conductivity (308.15 K, x1 = 0.0001) [S/m] | viscosity (308.15 K, x1 = 0.0001) [mPa·s] | electrical conductivity (288.15 K, x2 = 0) [S/m] | viscosity (288.15 K, x2 = 0) [mPa·s] | electrical conductivity (298.15 K, x2 = 0) [S/m] | electrical conductivity (308.15 K, x2 = 0) [S/m] | SMILES |
| --- | --- | --- | --- | --- | --- | --- | --- | --- | --- |
| 0.0311 S/m and 0.0454 S/m and 0.0612 S/m | 0.0389 S/m and 0.0568 S/m and 0.0759 S/m | 0.892 mPa·s and 0.894 mPa·s | 0.069 | 0.731 |  |  |  |  | CCCC[n+]1ccn(C)c1.[Br-] + O |
|  |  |  |  |  | 0.0001 | 1.133 | 0.0001 | 0.0002 | O + CCCC[n+]1ccn(C)c1.[Br-] |
